As usually defined, the IC50 is the concentration that inhibits the measured activity by half.

The first experiment is described as follows: GPR35 antagonists, SAR follow-up, imaging, image-based, set 2 (AID 2480).
Conditions: not given
The molecule `COc1ccc(/C=C2\SC(=S)N(CCCC(=O)Nc3ccc(O)cc3)C2=O)cc1` [MLS-0304362.0001] returned an IC50 of 1160 nM.
The same measure, in the same setting: to `CC(C)c1ccc(NC(=O)CSc2nc3ccsc3c(=O)n2Cc2ccc(C(=O)O)cc2)cc1` [4-[[4-oxo-2-[2-oxo-2-(4-propan-2-ylanilino)ethyl]sulfanylthieno[3,2-d]pyrimidin-3-yl]methyl]benzoic acid] belongs 1330 nM; to `Cc1nc(N2CCC(C)CC2)c2c(C)c(C(=O)Nc3ccc4c(c3)OCCO4)sc2n1` [N-(2,3-dihydro-1,4-benzodioxin-6-yl)-2,5-dimethyl-4-(4-methyl-1-piperidinyl)-6-thieno[2,3-d]pyrimidinecarboxamide], 1880 nM; to `Clc1ccccc1Cn1ncc2c(N3CCN(c4ccccc4)CC3)ncnc21`, over 32000 nM.
The same measure, in the same setting: to `Cc1ccccc1N1CCN(c2ncnc3c2cnn3Cc2ccc(Cl)cc2)CC1` [1-[(4-chlorophenyl)methyl]-4-[4-(2-methylphenyl)-1-piperazinyl]pyrazolo[3,4-d]pyrimidine] belongs 2220 nM; to `c1ccc(-c2n[n+](-c3ccccc3)c(-c3ccccc3)s2)cc1`, over 32000 nM.

The experiment is the same for the next values; noted with them: inactive by the depositor's call.
In turn, `Cc1nc(N2CCC(C)CC2)c2c(C)c(C(=O)Nc3ccccc3C(F)(F)F)sc2n1` [SMR000312025] registered an IC50 of 10200 nM.

The values above are taken from BindingDB's records for doi:10.7270/Q2F47MKR (Burnham Center For Chemical Genomics, 2010).
